The record followed here is the METLIN SMRT retention time set (Domingo-Almenara et al. 2019).

The structures appear in SMILES notation.

The nature of the data set: gradient 5% acetonitrile 3 min, to 50% in 2 min, to 85% in 15 min, held 3 min, 100 µL/min. The conditions noted are these: column: Zorbax Extend-C18 2.1 x 50 mm; eluents: water / acetonitrile, 0.1% formic acid. In outline:
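A Zorbax Extend-C18 column (2.1 × 50 mm, 1.8 μm) run at 100 μL/min with water and acetonitrile, both containing 0.1% formic acid, separated mixtures of ~100 pure standards. The HPLC was coupled to a quadrupole time-of-flight mass spectrometer operated in positive and negative ionization mode, with dead and dwell volumes of 40 μL and 900 μL. Each retention time was taken from a computationally picked adduct peak that was then manually inspected.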
Consider `Cc1ccc(CNC(=O)C2(C)Oc3cccnc3N(C)C2=O)cc1` (centres undefined), for which the RP-LC retention time was found to be 806 s. The value for `CCCn1cc(C(=O)Nc2ccc(OC)cc2C)c(=O)c2ccc(C)nc21` was 1130 s. The same measure for `CN1C(=O)[C@H]2CN(Cc3ccc(F)c(F)c3)C[C@H]2C1=O`: 590 s; for `COc1cc(C(CC(=O)NC2CCCC2)N2Cc3ccccc3C2=O)cc(OC)c1OC` (centres undefined): 755 s. `Cc1nc(-c2noc(-c3ccccc3)n2)cn1CC(=O)Nc1ccc(Cl)cc1`: the RP-LC retention time turned out to be 885 s. As for `O=C(NCCC1=CCCCC1)c1ccc2ccnc(N3CCN(c4ccccc4)CC3)c2c1`, the RP-LC retention time was found to be 958 s. As for `Cc1nc(C)c(-c2ccc(=O)n(CCNS(=O)(=O)c3ccc4c(c3)OCCO4)n2)s1`, the RP-LC retention time stood at 642 s. The value for `Cc1cc(C)cc(NC(=O)Cn2c(N3CCOCC3)nc(C)cc2=O)c1` was 711 s.

As for `COC(=O)c1ccc(-c2nc3cnccn3c2Nc2ccccc2C)cc1`, the RP-LC retention time came out at 906 s. The value for `CCOc1ccc(S(=O)(=O)N2CCC(c3noc(-c4ccccc4C)n3)CC2)cc1` was 1180 s. In turn, `CCOC(=O)c1c(NCCc2c[nH]c3ccccc23)c2ccc(Cl)cc2[nH]c1=O` had an RP-LC retention time of 833 s. Consider `CCCCOc1ccc(NC(=O)c2oc3cc(C)ccc3c2C)c2cccnc12`, for which the RP-LC retention time amounted to 946 s. `CCCNC(=O)C1CCN(S(=O)(=O)c2cc(C(=O)N(C)C)cs2)CC1` displayed an RP-LC retention time of 658 s. On to `Cc1cc(C)n(CCNC(=O)CN2CCN(c3ccc4c(c3)OCCO4)C2=O)n1`, for which the RP-LC retention time amounted to 616 s.

The molecule `CCOC(=O)c1c(-c2ccccc2)csc1NC(=O)c1ccccc1C(=O)O` came in with an RP-LC retention time of 963 s. Molecule `COc1ccc(-c2nc(NC3CC3)c3ccccc3n2)cc1` came in with an RP-LC retention time of 706 s. The same measure for `COCCNC(=O)C1CCN(c2nccnc2Sc2ccccc2)CC1`: 764 s; for `CSc1cccc(NS(=O)(=O)c2cc3c(s2)CCN(C(=O)C2CC2)C3)c1`: 860 s; for `COc1ccc(-c2csc(NC(=O)COc3ccccc3Cl)n2)cc1Br`: 1220 s. The value for `Cc1ccc(C(C)NC(=O)c2ccc(-c3cccnc3)nc2)c(C)c1` (centres undefined) was 745 s; that for `CCOc1ccccc1NC(=O)N1CCC2(CC1)NC(=O)c1ccccc1N2C` was 807 s. In turn, `Cc1ccc(C)c(N2CCN(c3ccc(-c4nc(-c5cccc(F)c5)no4)cn3)CC2)c1` showed an RP-LC retention time of 602 s. The same measure for `O=C(NCc1cc(F)cc(F)c1)c1ccc2c(c1)ncn2CCN1CCCC1`: 594 s. Regarding `Cc1ccc(C)c(NC(=O)CCc2cccc3[nH]ccc23)c1`, the RP-LC retention time worked out at 879 s.

`Cc1noc(-c2cc(=O)n(CC(=O)Nc3cccc(C#N)c3)c3ccccc23)n1` displayed an RP-LC retention time of 831 s. Molecule `Cc1c(CCC(=O)N[C@H](C)C(=O)O)c(=O)oc2c(C)c(O)ccc12` registered an RP-LC retention time of 618 s. The same measure for `CC(C)CCNS(=O)(=O)c1ccc(-c2nc(C(C)C)cs2)s1`: 1260 s; for `COc1ccccc1C(=O)NC1CCN(c2cc(C)cc(C)c2)C1=O` (centres undefined): 928 s. The value for `CC1Cc2ccccc2N1C(=O)CCC(=O)N1CCN(c2cc(=O)n(C(C)C)c(=O)n2C(C)C)CC1` (centres undefined) was 890 s; that for `O=c1cc(-c2ccc(O)cc2)oc2cc(O[C@@H]3O[C@H](CO)[C@H](O)[C@H](O)[C@H]3O)cc(O)c12` was 746 s; that for `COc1ccc(NC(=O)C2CCN(c3cc(N4CCSCC4)ncn3)CC2)cc1OC` was 627 s. The value for `Cc1[nH]c(C(=O)N2CCN(c3cccc(Cl)c3)CC2)c(C)c1S(=O)(=O)N1CCC(C)CC1` was 1090 s; that for `Cc1cc(N2CCCC2)n2ncnc2n1` was 567 s.

Molecule `CCC(C)NC(=O)c1cc(=O)[nH]c2c(C)cccc12` (centres undefined) yielded an RP-LC retention time of 661 s.

In turn, `CSc1nnc(-c2nn(C)c3c2CN(C(=O)c2ccc(C)c(C)c2)CC3)n1C` yielded an RP-LC retention time of 770 s. For `O=C(NC1CC1)C1CCN(c2ncccc2-c2nc(-c3ccc(Cl)cc3)no2)CC1`, the RP-LC retention time turned out to be 970 s.

For `COc1ccc(C2C(C(=O)N3CCCCCC3)c3cc(OC)c(OC)cc3C(=O)N2C)cc1OC` (centres undefined), the RP-LC retention time was determined as 748 s. The value for `Cc1ccccc1Cc1nc2ccccc2n1CC(N)=O` was 570 s. The same measure for `c1nc2c(c(NCc3ccc4c(c3)OCO4)n1)CCC2`: 606 s; for `COc1ccc(NC(=O)Nc2cccc(-c3nccnc3N3CCCC3)c2)c(OC)c1`: 881 s; for `COCc1nc2cccnc2n1C1CCN(C(=O)Nc2ccc(OC)cc2OC)CC1`: 638 s.

Consider `O=C(Nc1cccc([N+](=O)[O-])c1)C(=O)Nc1ccc2c(c1)N(C(=O)C1CC1)CCC2`, for which the RP-LC retention time is 883 s. The value for `O=C(NC1CCCCCC1)c1nc(Nc2ccccc2)c2ccccc2n1` was 917 s; that for `Cc1cc(C)c(S(=O)(=O)NCCn2c(C)cnc2C2CC2)c(C)c1` was 647 s. The same measure for `CCc1ccc(NC(=O)Cn2cc(C(=O)N3CCCC3)c(=O)c3ccc(C)nc32)cc1`: 759 s. The value for `O=C(NC1CCCC1)C1CCCN(c2nc3ccsc3c(=O)n2Cc2ccccc2)C1` (centres undefined) was 895 s; that for `Cn1nc2n(c1=O)CCN(C(=O)c1ccsc1)CC2` was 570 s. Turning to `Cn1cc(-c2ccc(F)cc2)cc1C(=O)N1CCOCC1`, the RP-LC retention time turned out to be 811 s. The same measure for `CC(C)(OCc1nn(Cc2ccccc2)c2ccccc12)C(=O)O`: 937 s.

Molecule `CC(C)c1ccc(-c2nc(C3CC(=O)N(c4ccc(F)c(Cl)c4)C3)no2)cc1` (centres undefined) returned an RP-LC retention time of 1290 s. `CC(C)NC(=O)NC1CCN(c2nc3ccccc3n(C)c2=O)CC1` yielded an RP-LC retention time of 562 s.

As for `Cn1nc2n(c1=O)CCN(C(=O)c1cc(CN3CCOCC3)on1)CC2`, the RP-LC retention time was found to be 534 s.

`O=C(N[C@H]1C[C@@H]2C[C@H]1N(C(=O)c1ccco1)C2)c1ccccc1`: the RP-LC retention time is 671 s. The value for `COc1ccccc1C(=O)N1CCC(c2cc3n(n2)CCCNC3=O)CC1` was 596 s; that for `CN1CCCc2cc(C(CNC(=O)C(=O)NCc3ccc(F)cc3)N3CCOCC3)ccc21` (centres undefined) was 569 s. The same measure for `COc1cccc(-c2ccc(=O)n(Cc3nc(-c4cccc(Br)c4)no3)n2)c1`: 1110 s; for `O=C(NCc1ccco1)C1CCN(Cc2cc3ccccc3n2Cc2ccccc2)CC1`: 747 s; for `CN1CCN(S(=O)(=O)c2cccc(C#N)c2)CC1c1ccc(F)cc1` (centres undefined): 579 s. The same measure for `CC(=O)N1c2ccc(S(=O)(=O)N3CCCCC3)cc2CC1C(=O)NCCc1ccccc1` (centres undefined): 868 s; for `CCC(=O)N(CC(=O)N1CCc2sccc2C1COc1ccccc1OC)C1CC1` (centres undefined): 871 s; for `O=C(c1nnc(-c2ccc(S(=O)(=O)N3CCCCC3)cc2)o1)N1CCCCCC1`: 1010 s. In the case of `CCOc1ccc(-n2nnnc2CNC(=O)NCc2cccs2)cc1`, the RP-LC retention time amounted to 714 s.

Regarding `COc1ccc(C(=O)Nc2cc(C(=O)O)ccc2N2CCN(c3ncccn3)CC2)cc1`, the RP-LC retention time worked out at 836 s. The value for `Cc1ccc(N2C(=O)C3N=NN(Cc4nc(-c5cccc(Br)c5)no4)C3C2=O)cc1C` (centres undefined) was 1120 s. The same measure for `O=C(c1ccc(OCC2CCN(C(=O)c3ccoc3)CC2)cc1)N1CCOCC1`: 697 s; for `CCCN(Cc1ccc(OC)c(OC)c1)Cc1cc(=O)n2cc(Cl)ccc2n1`: 632 s; for `COc1ccc(Cl)cc1NC(=O)Cn1cccc1-c1nnc(C2CC2)o1`: 972 s.

In turn, `COC(=O)c1cc(C)nc2c1c(=O)n(Cc1c(F)cccc1Cl)c(=O)n2C` displayed an RP-LC retention time of 965 s.

On to `Cc1ccc(NC(=O)N2CCc3c(c(-c4nnc(-c5ccc(F)cc5)o4)nn3C)C2)cc1Cl`, for which the RP-LC retention time was found to be 1010 s. The value for `CCNC(=O)C1CCCN(C(=O)Nc2ccc(NC(=O)Nc3ccc(C)c(C)c3)cc2)C1` (centres undefined) was 748 s.

Take `O=C(NCc1cccnc1)C1=C2CCCN2c2ccc(F)cc2S1(=O)=O`: the RP-LC retention time amounted to 572 s.

Regarding `CCn1c(=O)c2ccccc2n(Cc2nc(-c3ccc(F)c(Br)c3)no2)c1=O`, the RP-LC retention time was found to be 1120 s. The molecule `Cc1nnc2n1CCC(NC(=O)c1ccsc1)CC2` (centres undefined) displayed an RP-LC retention time of 559 s. The value for `CC(NC(=O)C1CCN(c2cncnc2N2CCOCC2)CC1)c1ccccn1` (centres undefined) was 547 s; that for `COC(=O)Nc1nc(CC(=O)Nc2ccc(OC(F)(F)F)cc2)cs1` was 766 s. On to `Cc1cc(-n2c(C)nc3ccccc3c2=O)ccc1NC(=O)Cc1ccccc1F`, for which the RP-LC retention time stood at 798 s. `Cn1cc(C(=O)NCCc2cccs2)c(S(=O)(=O)N2CCSCC2)n1`: the RP-LC retention time worked out at 842 s. The same measure for `COC(=O)c1cc(C)nc2c1c(=O)n(Cc1ccc(Cl)cc1)c(=O)n2Cc1ccco1`: 1160 s; for `Cc1ccc(C)c(-c2cc3c4nn(CC(=O)N(C)c5ccc(F)cc5)c(=O)n4ccn3n2)c1`: 1020 s.
